# Bridge positions count the residues as written; N and C are the ends. Square brackets hold non-standard residues; d marks the D form. Peptide text beside a SMILES is read from it. * marks the point of attachment. Octanoyl = CCCCCCCC(=O)*; Dab = NCC[C@H](N)C(=O)O; Abu = CC[C@H](N)C(=O)O
# Experiments:
# [1] = test system: Ps. aeruginosa ATCC 27853; assay: Sensitization to rifampin: well diffusion growth inhibition on LB plates containing rifampin; assay type: cell-based, Pseudomonas aeruginosa; conditions: 4 μg of compound
# A. baumannii ATCC 19606 = assay: as above; assay type: cell-based, Acinetobacter baumannii; conditions: 4 μg of compound
# [2] = Two-week intravenous toxicity study in young rats; assay type: in vivo
# Protocol: Toxicity in young rats (weighing approx. 150 g in the beginning of the study) was determined by administering doses (1, 2, 4, 8, 16, and 32 mg/kg per day) of NAB7061 as well as the control compound polymyxin B intravenously twice (2) a day for two weeks. A group of ten (10) rats was studied for each dosis regimen. Clinical observations were made daily, the body weight measured twice weekly, and the food consumption twice weekly. In the end of week 2, all animals were sacrificed.
# Histopathology of kidneys was performed for each animals and histopathology of all tissues was performed in three high-dose groups receiving NAB7061.
# S. maltophilia ATCC17444 = assay: E-test MIC of antibiotics on Mueller-Hinton agar with or without NAB7061 (4 μg/ml); sensitization factor = MIC ratio absence/presence; assay type: cell-based
# Protocol: (§1) MICs were determined by using E-strips (Biodisk Ltd., Solna, Sweden) according to the manufacturer's instructions.
# (§2) The strains originated from ATCC (11 strains), CCUG (11 strains), and NCTC (The National Collection of Type Cultures, Colindale, U.K.; 2 strains). Eight strains (the F-strains) were purchased from Mobidiag Ltd., Helsinki, Finland. The source of E. coli IH3080 has been given in Example 2. Sensitization factor was defined as in Example 7.
# [3] = test system: three strains of A. baumannii; assay: E-test sensitization by NAB7061 (4 μg/ml), summary over A. baumannii strains; assay type: cell-based, Acinetobacter baumannii
# Source text: as §2
# Strains of K. pneumoniae remained somewhat more resistant to both antibiotics, and the sensitization factors varied between 10 and 500.
# [4] = test system: Acinetobacter baumannii ATCC 19606; assay: Well diffusion growth inhibition on LB agar plates (direct antibacterial activity); assay type: cell-based; conditions: A. baumannii ATCC 19606
# Procedure, shortened: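 Direct antibacterial activity against Acinetobacter baumannii ATCC 19606 was measured by agar well diffusion on LB plates. The plates were flooded with a suspension of approx. 10^8 cells/ml in 0.9% NaCl, and the excess was removed. Once the surface dried, five wells of 2 mm diameter were drilled per plate. The wells were filled with test compound dissolved in 0.9% NaCl, with plain 0.9% NaCl as control. After 18 h at 37° C., inhibition zone diameters were measured and converted to growth inhibition areas in square mm.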
# [5] = test system: Pseudomonas aeruginosa ATCC 27853; assay: as above; assay type: cell-based; conditions: Ps. aeruginosa ATCC 27853
# Procedure, shortened: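 Pseudomonas aeruginosa ATCC 27853 was tested for direct antibacterial susceptibility by agar well diffusion. A suspension of about 10^8 cells/ml in 0.9% NaCl was spread over LB agar and the excess removed. After drying, 2 mm wells were drilled and filled with compound dissolved in 0.9% NaCl, with NaCl alone as control. Plates were incubated 18 h at 37° C, and inhibition zone diameters were measured and converted to areas in square mm.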
# E. coli IH3080 = assay: Sensitization to rifampin: well diffusion growth inhibition on LB plates containing rifampin; assay type: cell-based, Escherichia coli; conditions: 4 μg of compound
# E. cloacae F232 = assay: E-test MIC of antibiotics on Mueller-Hinton agar with or without NAB7061 (4 μg/ml); sensitization factor = MIC ratio absence/presence; assay type: cell-based, Enterobacter cloacae
# Protocol: as §1, §2
# E. cloacae CCUG52947 = assay: as above; assay type: cell-based, Enterobacter cloacae
# Protocol: as §1, §2
# [6] = test system: E. coli (ATCC25922 and IH3080), K. pneumoniae ATCC13883, and E. cloacae ATCC23355; assay: E-test sensitization by NAB7061 (4 μg/ml), summary over the tested strains of Table 7; assay type: cell-based; conditions: range over the tested strains
# Protocol: as §1
# E. coli CCUG41427 = assay: E-test MIC of antibiotics on Mueller-Hinton agar with or without NAB7061 (4 μg/ml); sensitization factor = MIC ratio absence/presence; assay type: cell-based, Escherichia coli
# Protocol: as §1, §2
# E. coli CCUG41421 = assay: as above; assay type: cell-based, Escherichia coli
# Protocol: as §1, §2
# E. coli NCTC13351 = assay: as above; assay type: cell-based, Escherichia coli
# Protocol: as §1, §2
# E. coli CCUG41432 = assay: as above; assay type: cell-based, Escherichia coli
# Protocol: as §1, §2
# E. coli CCUG41424 = assay: as above; assay type: cell-based, Escherichia coli
# Protocol: as §1, §2
# E. coli CCUG41425 = assay: as above; assay type: cell-based, Escherichia coli
# Protocol: as §1, §2
# E. coli CCUG41422 = assay: as above; assay type: cell-based, Escherichia coli
# Protocol: as §1, §2
smiles,measurement,setting,value
"CCCCCCCC(=O)N[C@H](C(=O)N[C@@H](CC)C(=O)N[C@H]1CCNC(=O)[C@H]([C@@H](C)O)NC(=O)[C@H](CCN)NC(=O)[C@H](CCN)NC(=O)[C@H](CC(C)C)NC(=O)[C@@H](Cc2ccccc2)NC(=O)[C@H](CCN)NC1=O)[C@@H](C)O [NAB 7061, OA-Thr-Abu-cy[Dab-Dab-DPhe-Leu-Dab-Dab-Thr-]] (Octanoyl-T[Abu][Dab][Dab][dF]L[Dab][Dab]T; lactam 3-C)",Antibacterial activity in the presence of rifampin (growth inhibition area around a well),[1]; rifampin 0 μg/ml,0 square millimeters
same,Antibacterial activity in the presence of rifampin (growth inhibition area around a well),[1]; rifampin 0.1 μg/ml,0 square millimeters
same,Antibacterial activity in the presence of rifampin (growth inhibition area around a well),[1]; rifampin 0.3 μg/ml,0 square millimeters
same,Antibacterial activity in the presence of rifampin (growth inhibition area around a well),A. baumannii ATCC 19606; rifampin 0 μg/ml,0 square millimeters
same,Antibacterial activity in the presence of rifampin (growth inhibition area around a well),A. baumannii ATCC 19606; rifampin 0.1 μg/ml,28 square millimeters
same,Antibacterial activity in the presence of rifampin (growth inhibition area around a well),A. baumannii ATCC 19606; rifampin 0.3 μg/ml,50 square millimeters
same,Rise of blood urea nitrogen (BUN) versus control or low dose group,"[2]; rat, in vivo, 16 mg/kg/day",no such a rise was found
same,Lowest dose that negatively influenced the body weight gain,"[2]; rat, in vivo, iv",8 mg/kg per day
same,Survival throughout the study,"[2]; rats, doses 1 to 32 mg/kg per day intravenously for two weeks",all rats receiving NAB7061 remained alive throughout the study
same,General pathology and histopathology of organs and kidneys,"[2]; rats, two weeks intravenous dosing",No NAB7061-related pathological findings were found
same,MIC of rifampin in the presence of 4 μg/ml of NAB 7061,S. maltophilia ATCC17444,2 µg/mL
same,Resulting MIC to rifampin in the presence of NAB7061 (4 μg/ml),[3],≤ 0.125 µg/mL
same,Antibacterial activity (growth inhibition area around a well),[4]; 4 μg per well,0 square millimeters
same,Antibacterial activity (growth inhibition area around a well),[4]; 10 μg per well,0 square millimeters
same,Antibacterial activity (growth inhibition area around a well),[5]; 4 μg per well,0 square millimeters
same,Antibacterial activity (growth inhibition area around a well),[5]; 10 μg per well,0 square millimeters
same,Antibacterial activity in the presence of rifampin (growth inhibition area around a well),E. coli IH3080; rifampin 0 μg/ml,0 square millimeters
same,Antibacterial activity in the presence of rifampin (growth inhibition area around a well),E. coli IH3080; rifampin 0.1 μg/ml,113 square millimeters
same,Antibacterial activity in the presence of rifampin (growth inhibition area around a well),E. coli IH3080; rifampin 1.0 μg/ml,155 square millimeters
same,MIC of clarithromycin in the presence of 4 μg/ml of NAB 7061,E. cloacae F232,0.094 µg/mL
same,MIC of rifampin in the presence of 4 μg/ml of NAB 7061,E. cloacae F232,0.023 µg/mL
same,MIC of rifampin in the presence of 4 μg/ml of NAB 7061,E. cloacae CCUG52947,0.032 to 0.047 µg/mL
same,Sensitization factor to rifampin,E. cloacae CCUG52947; NAB 7061 4 μg/ml,500-1000
same,Sensitization factor to azithromycin,[6],31-94
same,Sensitization factor to clarithromycin,[6],63-380
same,MIC of clarithromycin in the presence of 4 μg/ml of NAB 7061,E. coli CCUG41427,0.064 µg/mL
same,MIC of rifampin in the presence of 4 μg/ml of NAB 7061,E. coli CCUG41427,0.032 to 0.064 µg/mL
same,Sensitization factor to rifampin,E. coli CCUG41427; NAB 7061 4 μg/ml,100-250
same,MIC of clarithromycin in the presence of 4 μg/ml of NAB 7061,E. coli CCUG41421,0.125 µg/mL
same,MIC of clarithromycin in the presence of 4 μg/ml of NAB 7061,E. coli NCTC13351,0.032 µg/mL
same,MIC of rifampin in the presence of 4 μg/ml of NAB 7061,E. coli NCTC13351,0.032 to 0.047 µg/mL
same,Sensitization factor to rifampin,E. coli NCTC13351; NAB 7061 4 μg/ml,340-500
same,MIC of clarithromycin in the presence of 4 μg/ml of NAB 7061,E. coli CCUG41432,0.064 µg/mL
same,MIC of rifampin in the presence of 4 μg/ml of NAB 7061,E. coli CCUG41432,0.032 µg/mL
same,Sensitization factor to rifampin,E. coli CCUG41432; NAB 7061 4 μg/ml,180-250
same,MIC of clarithromycin in the presence of 4 μg/ml of NAB 7061,E. coli CCUG41424,0.125 µg/mL
same,Sensitization factor to rifampin,E. coli CCUG41424; NAB 7061 4 μg/ml,85-94
same,MIC of clarithromycin in the presence of 4 μg/ml of NAB 7061,E. coli CCUG41425,0.047 µg/mL
same,MIC of clarithromycin in the presence of 4 μg/ml of NAB 7061,E. coli CCUG41422,0.25 µg/mL
same,Sensitization factor to rifampin,E. coli CCUG41422; NAB 7061 4 μg/ml,170-256

# — patent publication US9067974B2, “Polymyxin derivatives and uses thereof” (priority 2006, dated 2015)
